# How the values were obtained:
# [1] = molecular target: Beta-1 adrenergic receptor (Homo sapiens, UniProt P08588); format: functional
# [2] = molecular target: Beta-2 adrenergic receptor (Homo sapiens, UniProt P07550); format: functional, cell-based
# [3] = molecular target: Voltage-dependent L-type calcium channel subunit alpha-1C (Rattus norvegicus, UniProt P22002); format: functional
# [4] = molecular target: T1, Gamma-aminobutyric acid receptor subunit alpha-1 (Rattus norvegicus, UniProt P62813)
# [5] = molecular target: T1, Gamma-aminobutyric acid receptor subunit alpha-1; format: functional
# [6] = molecular target: Glutamate receptor ionotropic, NMDA 1 (Rattus norvegicus, UniProt P35439)
# [7] = molecular target: T2, 5-hydroxytryptamine receptor 1A (Homo sapiens, UniProt P08908); format: functional, cell-based
# T2 sequence (P08908 whole entry): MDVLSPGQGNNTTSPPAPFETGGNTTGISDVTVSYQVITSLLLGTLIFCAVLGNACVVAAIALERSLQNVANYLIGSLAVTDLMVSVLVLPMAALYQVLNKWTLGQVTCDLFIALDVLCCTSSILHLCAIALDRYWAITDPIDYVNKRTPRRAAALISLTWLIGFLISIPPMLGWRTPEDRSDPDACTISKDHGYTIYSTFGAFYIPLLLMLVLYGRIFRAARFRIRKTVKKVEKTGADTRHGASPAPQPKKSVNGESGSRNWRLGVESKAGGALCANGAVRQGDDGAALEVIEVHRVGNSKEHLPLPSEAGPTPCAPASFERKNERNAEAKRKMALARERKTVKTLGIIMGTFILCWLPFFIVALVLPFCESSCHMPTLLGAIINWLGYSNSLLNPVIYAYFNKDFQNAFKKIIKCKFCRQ
# [8] = molecular target: 5-hydroxytryptamine receptor 2B (Homo sapiens, UniProt P41595); format: functional, cell-based
# [9] = molecular target: Sodium-dependent dopamine transporter (Homo sapiens, UniProt Q01959)
# [10] = molecular target: cGMP-inhibited 3',5'-cyclic phosphodiesterase 3A (Homo sapiens, UniProt Q14432); format: functional
# Glucocorticoid receptor = molecular target: T3, Glucocorticoid receptor (Homo sapiens, UniProt P04150)
# T3 sequence (P04150 whole entry): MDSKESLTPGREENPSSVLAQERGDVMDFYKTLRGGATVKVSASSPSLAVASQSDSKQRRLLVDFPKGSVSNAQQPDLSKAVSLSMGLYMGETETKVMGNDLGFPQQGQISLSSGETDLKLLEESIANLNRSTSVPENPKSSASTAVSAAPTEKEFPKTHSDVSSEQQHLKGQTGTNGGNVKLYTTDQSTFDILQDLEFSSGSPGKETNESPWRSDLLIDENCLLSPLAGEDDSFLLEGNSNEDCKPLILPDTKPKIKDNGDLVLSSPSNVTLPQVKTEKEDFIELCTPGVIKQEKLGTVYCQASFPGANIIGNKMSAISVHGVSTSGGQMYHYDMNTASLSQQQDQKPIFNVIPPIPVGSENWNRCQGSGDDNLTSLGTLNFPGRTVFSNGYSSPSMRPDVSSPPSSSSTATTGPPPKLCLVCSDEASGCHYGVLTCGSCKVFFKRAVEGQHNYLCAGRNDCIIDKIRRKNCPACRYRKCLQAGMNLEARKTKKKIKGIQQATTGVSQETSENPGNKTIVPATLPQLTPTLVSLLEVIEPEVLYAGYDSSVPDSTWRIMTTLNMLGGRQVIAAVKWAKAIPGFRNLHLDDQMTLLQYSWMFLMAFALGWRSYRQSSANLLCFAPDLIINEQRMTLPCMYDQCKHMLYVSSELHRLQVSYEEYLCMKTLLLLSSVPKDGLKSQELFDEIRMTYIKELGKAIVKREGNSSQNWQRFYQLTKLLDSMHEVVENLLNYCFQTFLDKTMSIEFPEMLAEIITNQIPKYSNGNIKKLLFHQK
# D(3) dopamine receptor = D(3) dopamine receptor (Homo sapiens, UniProt P35462)
# Further: assay procedure not described here.
# T1 sequence (P62813 whole entry): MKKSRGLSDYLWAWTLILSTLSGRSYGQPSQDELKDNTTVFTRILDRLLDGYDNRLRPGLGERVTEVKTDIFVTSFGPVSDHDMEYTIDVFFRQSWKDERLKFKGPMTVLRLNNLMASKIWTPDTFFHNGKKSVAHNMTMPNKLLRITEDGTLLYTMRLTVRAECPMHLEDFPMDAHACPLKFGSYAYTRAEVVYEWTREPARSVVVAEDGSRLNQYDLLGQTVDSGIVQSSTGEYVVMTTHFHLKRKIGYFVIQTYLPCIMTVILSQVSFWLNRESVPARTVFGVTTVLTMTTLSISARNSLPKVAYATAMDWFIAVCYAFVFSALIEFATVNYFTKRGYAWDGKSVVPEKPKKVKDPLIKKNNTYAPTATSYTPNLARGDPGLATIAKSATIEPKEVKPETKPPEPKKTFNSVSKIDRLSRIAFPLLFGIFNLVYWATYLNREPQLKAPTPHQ
# Sequence of Beta-1 adrenergic receptor (P08588 whole entry): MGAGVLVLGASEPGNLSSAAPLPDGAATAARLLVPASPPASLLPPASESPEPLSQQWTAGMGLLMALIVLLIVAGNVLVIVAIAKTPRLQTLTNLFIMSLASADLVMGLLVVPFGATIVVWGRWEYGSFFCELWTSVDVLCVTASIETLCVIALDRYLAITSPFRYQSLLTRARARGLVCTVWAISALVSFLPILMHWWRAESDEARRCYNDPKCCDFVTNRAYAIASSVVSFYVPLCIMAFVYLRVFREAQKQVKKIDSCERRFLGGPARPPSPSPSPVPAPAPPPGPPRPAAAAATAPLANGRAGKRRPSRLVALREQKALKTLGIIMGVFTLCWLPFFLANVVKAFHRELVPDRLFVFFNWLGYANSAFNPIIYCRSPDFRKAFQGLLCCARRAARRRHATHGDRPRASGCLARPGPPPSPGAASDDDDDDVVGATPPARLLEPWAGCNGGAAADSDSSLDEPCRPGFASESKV
# Sequence of Beta-2 adrenergic receptor (P07550 whole entry): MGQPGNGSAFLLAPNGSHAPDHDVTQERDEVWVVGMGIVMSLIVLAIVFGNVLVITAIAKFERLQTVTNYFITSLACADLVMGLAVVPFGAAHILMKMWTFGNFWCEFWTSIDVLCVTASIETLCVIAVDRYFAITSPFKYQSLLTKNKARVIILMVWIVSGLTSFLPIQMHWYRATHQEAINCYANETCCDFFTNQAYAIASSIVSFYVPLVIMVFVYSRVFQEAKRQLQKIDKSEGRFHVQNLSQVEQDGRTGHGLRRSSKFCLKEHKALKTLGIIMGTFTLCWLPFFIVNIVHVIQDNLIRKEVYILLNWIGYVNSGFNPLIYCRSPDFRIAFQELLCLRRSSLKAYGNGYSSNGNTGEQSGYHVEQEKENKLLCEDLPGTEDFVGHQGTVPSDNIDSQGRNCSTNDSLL
# Sequence of D(3) dopamine receptor (P35462 whole entry): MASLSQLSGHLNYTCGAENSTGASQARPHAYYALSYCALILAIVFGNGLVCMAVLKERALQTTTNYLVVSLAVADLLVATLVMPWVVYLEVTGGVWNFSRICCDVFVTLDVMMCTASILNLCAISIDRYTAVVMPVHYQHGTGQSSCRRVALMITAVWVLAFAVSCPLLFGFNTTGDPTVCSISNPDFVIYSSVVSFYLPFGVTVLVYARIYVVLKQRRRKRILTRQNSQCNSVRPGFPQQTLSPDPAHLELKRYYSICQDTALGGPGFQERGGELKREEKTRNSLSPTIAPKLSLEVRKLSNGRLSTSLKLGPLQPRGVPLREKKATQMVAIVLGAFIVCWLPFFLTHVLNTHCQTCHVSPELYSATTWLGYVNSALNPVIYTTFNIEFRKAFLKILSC
# Sequence of cGMP-inhibited 3',5'-cyclic phosphodiesterase 3A (Q14432 whole entry): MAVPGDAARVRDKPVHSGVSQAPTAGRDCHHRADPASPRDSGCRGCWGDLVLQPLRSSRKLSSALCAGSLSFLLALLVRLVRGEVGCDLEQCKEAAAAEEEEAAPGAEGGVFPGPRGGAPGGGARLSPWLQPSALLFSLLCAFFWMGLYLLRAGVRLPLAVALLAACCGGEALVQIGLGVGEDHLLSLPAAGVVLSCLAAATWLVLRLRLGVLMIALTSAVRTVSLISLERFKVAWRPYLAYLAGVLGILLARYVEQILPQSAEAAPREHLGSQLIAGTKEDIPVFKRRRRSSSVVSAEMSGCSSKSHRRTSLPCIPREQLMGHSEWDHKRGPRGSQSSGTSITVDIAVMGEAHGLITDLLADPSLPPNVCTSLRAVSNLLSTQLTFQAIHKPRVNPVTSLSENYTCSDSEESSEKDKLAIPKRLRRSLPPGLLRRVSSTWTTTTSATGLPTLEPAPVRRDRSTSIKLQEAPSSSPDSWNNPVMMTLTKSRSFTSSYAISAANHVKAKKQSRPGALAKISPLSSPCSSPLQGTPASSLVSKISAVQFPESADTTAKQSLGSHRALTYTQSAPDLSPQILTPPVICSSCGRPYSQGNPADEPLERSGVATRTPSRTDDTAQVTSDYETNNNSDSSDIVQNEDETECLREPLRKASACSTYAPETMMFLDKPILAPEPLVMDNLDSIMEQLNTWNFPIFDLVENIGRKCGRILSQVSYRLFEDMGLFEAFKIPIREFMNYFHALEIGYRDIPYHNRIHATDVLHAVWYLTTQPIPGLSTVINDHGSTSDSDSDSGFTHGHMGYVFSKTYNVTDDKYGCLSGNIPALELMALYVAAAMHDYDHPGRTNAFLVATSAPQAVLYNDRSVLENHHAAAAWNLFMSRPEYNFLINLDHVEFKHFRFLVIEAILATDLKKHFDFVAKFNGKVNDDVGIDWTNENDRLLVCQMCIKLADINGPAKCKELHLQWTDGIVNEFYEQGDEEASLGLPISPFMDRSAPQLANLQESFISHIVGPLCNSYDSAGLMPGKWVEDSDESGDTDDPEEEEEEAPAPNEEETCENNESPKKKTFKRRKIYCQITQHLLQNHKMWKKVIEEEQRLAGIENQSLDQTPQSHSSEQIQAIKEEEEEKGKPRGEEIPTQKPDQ
# Sequence of 5-hydroxytryptamine receptor 2B (P41595 whole entry): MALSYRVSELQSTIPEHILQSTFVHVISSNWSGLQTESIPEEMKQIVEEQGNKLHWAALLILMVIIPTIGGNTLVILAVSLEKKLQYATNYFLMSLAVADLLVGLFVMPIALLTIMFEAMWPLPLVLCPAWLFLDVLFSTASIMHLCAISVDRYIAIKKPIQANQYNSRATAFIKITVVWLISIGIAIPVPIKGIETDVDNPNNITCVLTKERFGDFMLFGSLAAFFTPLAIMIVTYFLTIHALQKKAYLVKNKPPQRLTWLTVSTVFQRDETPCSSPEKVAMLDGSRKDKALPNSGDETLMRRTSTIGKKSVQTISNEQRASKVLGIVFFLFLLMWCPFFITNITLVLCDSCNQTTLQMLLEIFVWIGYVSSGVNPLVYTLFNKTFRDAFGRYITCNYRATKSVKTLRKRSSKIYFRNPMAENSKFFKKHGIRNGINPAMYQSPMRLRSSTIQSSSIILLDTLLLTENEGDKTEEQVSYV
# Sequence of Sodium-dependent dopamine transporter (Q01959 whole entry): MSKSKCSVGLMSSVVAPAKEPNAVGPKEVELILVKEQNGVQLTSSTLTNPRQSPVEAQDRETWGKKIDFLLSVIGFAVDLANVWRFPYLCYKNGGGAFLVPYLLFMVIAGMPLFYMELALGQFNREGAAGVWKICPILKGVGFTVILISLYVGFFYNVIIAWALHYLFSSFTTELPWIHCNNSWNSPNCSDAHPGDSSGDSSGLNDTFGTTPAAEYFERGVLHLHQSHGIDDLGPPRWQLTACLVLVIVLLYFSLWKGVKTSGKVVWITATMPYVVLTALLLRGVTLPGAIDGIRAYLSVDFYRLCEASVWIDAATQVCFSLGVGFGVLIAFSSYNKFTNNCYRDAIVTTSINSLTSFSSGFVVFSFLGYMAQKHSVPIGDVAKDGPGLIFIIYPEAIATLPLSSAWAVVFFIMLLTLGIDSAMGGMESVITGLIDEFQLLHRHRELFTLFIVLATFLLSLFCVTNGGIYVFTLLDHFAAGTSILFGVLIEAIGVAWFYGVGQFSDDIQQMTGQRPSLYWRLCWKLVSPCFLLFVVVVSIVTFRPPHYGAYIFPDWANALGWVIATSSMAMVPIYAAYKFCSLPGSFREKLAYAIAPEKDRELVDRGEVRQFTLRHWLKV
SMILES,AC50 [1] [µM],AC50 [2] [µM],AC50 [3] [µM],AC50 [4] [µM],AC50 [5] [µM],AC50 [6] [µM],AC50 [7] [µM],AC50 [8] [µM],AC50 [9] [µM],AC50 [10] [µM],AC50 (Glucocorticoid receptor) [µM],AC50 (D(3) dopamine receptor) [µM]
CC(/C=C1\SC(=S)N(CC(=O)O)C1=O)=C\c1ccccc1,26,> 30,> 30,> 30,> 30,> 30,21,> 30,20,> 30,,
CCc1oc2ccccc2c1C(=O)c1cc(Br)c(O)c(Br)c1 [BENZBROMARONE],29,> 30,> 10,> 10,> 30,> 10,> 30,1.53,26,9.4,11,> 30
C=C(C)[C@@H]1CCC(C)=C[C@H]1c1c(O)cc(CCCCC)cc1O [CANNABIDIOL],> 30,> 30,,,> 30,,> 10,2.28,28,25,,> 30
CO/N=C(\C(=O)N[C@@H]1C(=O)N2C(C(=O)O)=C(COC(N)=O)CS[C@H]12)c1ccco1 [CEFUROXIME],> 30,> 30,,,> 30,> 30,> 30,> 30,> 30,> 30,> 30,> 30
[H]/N=C(\N/C(=N/[H])NCCCCCCNC(=N)NC(=N)Nc1ccc(Cl)cc1)Nc1ccc(Cl)cc1 [CHLORHEXIDINE],1.4,> 30,> 10,> 10,> 10,> 10,8.3,1.26,3,11,> 30,3.2
COC(=O)[C@H](c1ccccc1Cl)N1CCc2sccc2C1 [CLOPIDOGREL],,> 30,> 30,> 30,> 30,> 30,> 30,2,> 30,> 30,> 30,> 30
CC1(C)O[C@@H]2C[C@H]3[C@@H]4C[C@H](F)C5=CC(=O)C=C[C@]5(C)[C@H]4[C@@H](O)C[C@]3(C)[C@]2(C(=O)CO)O1 [FLUNISOLIDE],> 30,> 30,,,> 30,,0.56,> 30,> 30,> 30,,> 30
Nc1nc(O)c2ncn(COC(CO)CO)c2n1 [GANCICLOVIR],> 30,> 30,> 30,> 30,> 30,> 30,> 30,> 30,> 30,> 30,> 30,> 30
C[C@H]1Oc2cc(cnc2N)-c2c(nn(C)c2C#N)CN(C)C(=O)c2ccc(F)cc21 [LORLATINIB],> 30,> 30,,,> 30,,6.2,14,> 30,> 30,,> 30
Cc1cnc(NC(=O)C2=C(O)c3ccccc3S(=O)(=O)N2C)s1 [MELOXICAM],> 10,> 30,> 10,> 10,> 10,> 10,> 10,> 10,> 10,> 10,> 30,> 10
COc1ccnc(C[S+]([O-])c2nc3ccc(OC(F)F)cc3[nH]2)c1OC (stereo unspecified) [PANTOPRAZOLE],> 10,> 30,> 10,> 10,> 10,> 10,> 10,> 10,> 10,> 30,> 30,> 10
O=C1NC(=O)C(c2ccccc2)(c2ccccc2)N1 [PHENYTOIN],> 30,> 30,> 10,> 10,> 30,> 10,> 30,> 30,> 30,> 30,> 30,> 30
CC(C)C[C@H](CN)CC(=O)O [PREGABALIN],> 30,> 30,> 30,> 30,> 30,> 30,> 30,> 30,> 30,> 30,> 30,> 30
CCOc1cc(CC(=O)N[C@@H](CC(C)C)c2ccccc2N2CCCCC2)ccc1C(=O)O [REPAGLINIDE],> 30,> 30,,,> 30,,> 30,> 30,> 30,> 30,,> 30
CCCN(CCC)CCc1cccc2c1CC(=O)N2 [ROPINIROLE],> 30,> 30,> 10,> 10,> 30,> 10,> 30,,> 30,> 30,> 30,
CC[C@H]1OC(=O)[C@H](C)[C@@H](O[C@H]2C[C@@](C)(OC)[C@@H](O)[C@H](C)O2)[C@H](C)[C@@H](O[C@@H]2O[C@H](C)C[C@H](N(C)C)[C@H]2O)[C@](C)(O)C[C@@H](C)/C(=N\OCOCCOC)[C@H](C)[C@@H](O)[C@]1(C)O [ROXITHROMYCIN],> 30,> 30,,,> 30,,> 30,> 30,> 30,> 30,,> 30
CC(C)N(CCCCOCC(=O)NS(C)(=O)=O)c1cnc(-c2ccccc2)c(-c2ccccc2)n1 [SELEXIPAG],> 30,> 30,> 30,> 30,> 30,> 30,24,12,> 30,> 30,> 30,> 30
CC(=O)S[C@@H]1CC2=CC(=O)CC[C@]2(C)[C@H]2CC[C@@]3(C)[C@@H](CC[C@@]34CCC(=O)O4)[C@H]12 [SPIRONOLACTONE],> 30,> 30,> 10,> 10,> 10,> 10,> 30,29,> 30,> 30,0.19,> 30
Cc1cc(CC(=O)O)n(C)c1C(=O)c1ccc(Cl)cc1 [ZOMEPIRAC],> 30,> 30,> 30,> 30,> 30,> 30,> 30,> 30,> 30,> 30,> 30,> 30

# From ChEMBL document CHEMBL5291721, “A preclinical secondary pharmacology resource illuminates target-adverse drug reaction associations of marketed drugs” (Nat Commun, 2023)
